{
  "source": "patent US5773438A",
  "about": "“Synthetic matrix metalloprotease inhibitors and use thereof” (Glycomed Incorporated, priority 1994, dated 1998)",
  "key": {"[1]": {"biological_target": "Stromelysin (Homo sapiens, UniProt P08254)", "sequence (P08254 100-477)": "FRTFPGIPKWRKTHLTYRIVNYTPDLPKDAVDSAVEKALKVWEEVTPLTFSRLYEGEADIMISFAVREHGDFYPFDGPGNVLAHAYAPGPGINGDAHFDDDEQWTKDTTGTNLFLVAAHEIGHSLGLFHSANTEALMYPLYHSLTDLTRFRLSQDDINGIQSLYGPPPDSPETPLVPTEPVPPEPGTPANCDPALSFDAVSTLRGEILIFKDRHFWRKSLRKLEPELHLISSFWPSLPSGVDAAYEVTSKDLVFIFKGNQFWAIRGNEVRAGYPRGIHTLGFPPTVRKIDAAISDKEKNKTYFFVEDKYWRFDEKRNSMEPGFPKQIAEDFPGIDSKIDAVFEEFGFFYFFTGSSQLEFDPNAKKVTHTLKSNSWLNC", "test": "inhibition of stromelysin (Table 2)", "format": "biochemical", "settings": "read-out: Strom inhibitory activity", "quoted_text": "Specifically, assay of inhibition activity can be conducted as follows. […] Assays for inhibition of human stromelysin are conducted as described by Teahan, J., et al., Biochemistry (1989) 20:8497-8501.\nAssay of inhibition activity can be conducted using a fluorogenic substrate developed by Knight et al., FEBS Letters (1992) 296:263. This method uses a fluorometer to determine the rate of substrate hydrolysis in a 96 well plate format. Reaction rates are determined at several substrate concentrations, and multiple inhibitor levels. The data are analyzed by Lineweaver-Burk, Dixon and Henderson plot analyses (Enzyme Kinetics (1975) Irwin Segal (John Wiley & Sons, Inc., publishers), and as described by Henderson, Biochem J. (1972) 127:321). The substrate levels range from 10-30μM. […] Inhibitors may be assayed against purified 72 kD gelatinase, 92 kD gelatinase, neutrophil collagenase, stromelysin or other proteases as appropriate. The enzymes are activated at 37° C. with APMA (4-aminophenylmercuric acetate), and the assays are carried out at room temperature."}, "[2]": {"system": "corneal vessels", "test": "inhibition of angiogenesis, rat cornea pellet implant (Walker 256 extract)", "format": "in vivo", "settings": "10 mg/mL in 55% DMSO, infused into vena cava 0.8 mL/24 hr, six days", "procedure": "A crude extract (30 mg/mL protein) of Walker 256 carcinoma, a rat malignant tumor, was incorporated into Hydron, a slow release polymer, in 1.5 mm diameter pellets. Pellets were implanted in the stroma of the corneas of anesthetized albino rats. […] Controls received only the DMSO solution. After six days, the animals were re-anesthetized and perfused intra-arterially with India ink in order to visualize the corneal vessels. The eyes were then enucleated and fixed in 5% formalin. Control eyes which received only the DMSO solution show massive vessel growth toward the pellet from the limbus."}, "[3]": {"system": "protease activity of chronic wound fluid", "test": "Azocoll assay of protease activity in chronic wound fluid", "format": "biochemical, human", "procedure": "Fluids were collected from 3 types of human wounds termed closed spontaneously healing wounds, open slowly healing wounds, and open chronic wounds. In the first category were fluids collected from the chest wall of women following mastectomy surgery. Fluids from non-infected wounds that were left open for valid surgical reasons were considered open slowly healing wounds. An occlusive dressing was placed over the wound bed, and fluids were collected after 2-6 hours of occlusion. Finally, fluids were also collected from chronic open wounds by covering the wounds with occlusive dressings. Wounds were considered to be chronic if they were not clinically infected and had been open and not healing for more than 4 weeks.\nThe various wound fluids were assayed for matrix metalloproteinase activity using the Azocoll assay essentially as described by Chavira, et al., Analytic Biochemistry (1984), 136:446.\nThe fluids were centrifuged, and the supernatants filtered using a 0.45μ sterile Gelman filter. The filtrates were stored frozen at -80° C. until tested for protease activity.\nThe effects of four inhibitors on the protease activity present in wound fluids were determined. The inhibitors were: compounds\nStock solutions of the four inhibitors were all prepared at a concentration of 800 μg/ml. Due to different solubility properties of the inhibitors, different techniques were utilized. […] S1209 was dissolved in 1% DMSO then dissolved in 10 mM citrate, pH 5.5, containing 0.05% methyl cellulose. 39A was dissolved in propylene glycol (to give a final concentration of 2.4%) then dissolved in 1 mM CaCl2, 50 mM Tris-Cl, pH 7.8. 21A was dissolved in propylene glycol (2.4%) methyl cellulose (0.05%) and 10 mM citrate, pH 8.\nThe protease substrate, Azocoll, was obtained from Sigma Chemical Corporation and it is a substrate for collagenase/gelatinase-like metalloproteinase enzymes and general proteases. Clostridium histolyticum collagenase (the crude form of the enzyme) was from Worthington Biochemicals. General chemicals including TRIS buffer, DMSO, and CaCl2 were from Sigma Chemical Corporation.\nBriefly, 900 μl of the Azocoll substrate suspension in buffer ([…] in 50 mM TRIS, pH 7.8, 1 mM CaCl2) was added to 1.5 ml microcentrifuge tubes then 50 μl of inhibitor (or buffer) and 50 μl of chronic wound fluid (or collagenase standard) were added to the reaction tube. The reaction tubes were placed at 37° C. in a shaker that inverted the tubes 30 times per minute. After 24 hours of incubation, the reaction tubes were centrifuges at 10,000 X g and the absorbance of the supernatant solution was measured at 520 nm with a Milton-Roy spectrophotometer. Proteolysis of Azocoll substrate generates soluble colored fragments from the insoluble Azocoll substrate. Wound fluid samples were incubated alone or with the inhibitors. Controls included incubation of the Azocoll substrate with the assay buffer to measure spontaneous degradation of the substrate. A standard curve for digestion of the Azocoll substrate was generated by incubation of the Azocoll with crude bacterial collagenase. Protease levels were expressed as net μg of collagenase equivalent per ml of chronic wound fluid. In the figures, certain of the wound fluids are referred to by an individual name.\nFor these experiments, due to the different solubility properties of the inhibitors, different techniques were utilized. […] S1209 was dissolved in 1% DMSO then dissolved in 10 mM citrate, pH 5.5, containing 0.05% methyl cellulose. 39A was dissolved in propylene glycol (to give a final concentration of 2.4%) then dissolved in 1 mM CaCl2, […] Tris-Cl, pH 7.8. 21A was dissolved in propylene glycol (2.4%) methyl cellulose (0.05%) and 10 mM citrate, pH 8."}, "[4]": {"system": "infiltration of neutrophils in the peritoneal cavity", "test": "thioglycollate induced peritonitis assay", "format": "in vivo, Balb/c male mice", "settings": "800 μg/ml, 1 ml/animal i.p. at 0.5, 1.0, 2.0 hr; p=0.0141", "procedure": "6-8 week old Balb/c male mice were used (n=10 each for the treated and control groups). Thioglycollate suspension (5.9 g/l in deionized water) was boiled until the color was golden, then cooled yielding a pink color. The lavage solution consisted of saline supplemented with 0.1% bovine serum albumin (100 mg/100 ml) and 5U heparin/ml.\nCells were collected by lavage at T=3.0 hr. post thioglycollate administration. The animals were euthanized by CO2 asphyxiation, and the abdominal skin was cut with surgical scissors to reveal the peritoneal cavity. Five ml of lavage fluid was injected into the peritoneum, and a suspension was made by gentle massage. The fluid was removed by syringe, recovering about 80% of the injected fluid. Total cell counts in the lavage fluid were determined by Coulter Counter."}, "[5]": {"system": "hypovolemic shock", "test": "hypovolemic shock, trauma-hemorrhage and resuscitation, non-heparinized rat", "format": "in vivo, Sprague-Dawley rats", "quoted_text": "This experiment relates to metalloprotease inhibitors in treating hypovolemic shock when administered systemically (via i.v. injection, infusion or other appropriate route) during resuscitation following hemorrhage-induced shock in a non-heparinized animal.\nFollowing hemorrhage, Ringer's lactate (3X maximum bleedout volume) was given over 45 minutes followed by Ringer's lactate (2X maximum bleedout volume) over 60 minutes. […] Sham-operated animals underwent blood vessel cannulation and midline incision, but hemorrhage and resuscitation was not induced. […] Saline-treated underwent trauma-hemorrhage and fluid resuscitation plus vehicle (an equal volume of normal saline) treatment."}},
  "note": "Entries after “also recorded” stand apart in the source; their conditions may differ.",
  "data": [
    {"smiles": "CNC(=O)[C@H](Cc1c[nH]c2ccccc12)NC(=O)[C@@H](CC(=O)NO)CC(C)C", "note": "[Compound 5A, N-[D,L-2-isobutyl-3-(N'-hydroxycarbonylamido)-propanoyl]-tryptophan methylamide]", "values": [
      {"measurement": "Ki", "setting": "[1]", "result": 27, "unit": "nM"},
      {"measurement": "corneal vessel growth versus controls", "setting": "[2]", "result": "vessels much shorter and/or much finer than in the controls, barely filling with ink"},
      {"measurement": "effective concentrations (order of magnitude)", "setting": "[3]; FIG. 4", "result": "μM"},
      {"measurement": "inhibition of protease activity of a chronic wound fluid", "setting": "[3]; FIG. 4", "result": "effectively inhibited; also recorded: much more potent that EDTA"},
      {"measurement": "inhibition of proteolytic degradation of Azocoll", "setting": "[3]; FIG. 4, 0.4 μg/ml (0.1 μM)", "result": "approximately 92%"},
      {"measurement": "inhibition of proteolytic degradation of Azocoll", "setting": "[3]; FIG. 4, 4 μg/ml (1 μM)", "result": "approximately 92%"},
      {"measurement": "inhibition of proteolytic degradation of Azocoll", "setting": "[3]; FIG. 4, 4 μg/ml (10 μM)", "result": "approximately 96%"},
      {"measurement": "inhibition of proteolytic degradation of Azocoll", "setting": "[3]; FIG. 4, 40 μg/ml (100 μM)", "result": "approximately 96%"},
      {"measurement": "protease activity of chronic wound fluid after addition of inhibitor", "setting": "[3]; FIG. 7, 800 μg/ml, untreated 284±52", "result": "45±1 μg collagenase equivalents/ml of wound fluid"},
      {"measurement": "inhibition of protease activity of chronic wound fluid", "setting": "[3]; FIG. 7, highest concentration (800 μg/ml)", "result": 84, "unit": "%"},
      {"measurement": "protease activity of chronic wound fluid after addition of inhibitor, lower concentrations", "setting": "[3]; FIG. 7, lower concentrations, untreated 284±52", "result": "up to 90±6 μg collagenase equivalents/ml of wound fluid"},
      {"measurement": "average number of cells in the peritoneum versus vehicle", "setting": "[4]", "result": "significantly reduced"},
      {"measurement": "hepatocellular function (Vmax and Km)", "setting": "[5]; 2 and 4 hours", "result": "improved hepatic function relative to saline group; also recorded: restores or significantly improves"},
      {"measurement": "Vmax of indocyanine green clearance versus saline group", "setting": "[5]; 2 h", "result": "significantly higher"},
      {"measurement": "maximal clearance rate (Vmax) of indocyanine green", "setting": "[5]; 2 h after resuscitation, of sham level", "result": "about 85%"},
      {"measurement": "microvascular blood flow versus saline group", "setting": "[5]; 2 h and 4 h, liver, kidney, spleen, small intestine", "result": "elevated relative to the saline group; also recorded: restores or significantly improves"},
      {"measurement": "microvascular blood flow", "setting": "[5]; 2 h and 4 h, of sham, liver, kidney, spleen, small intestine", "result": "80-100%"},
      {"measurement": "Vmax of indocyanine green clearance versus saline treated animals", "setting": "[5]; 4 h", "result": "two-fold that of saline treated animals"},
      {"measurement": "total peripheral resistance", "setting": "[5]; following resuscitation, versus saline or sham", "result": "lower following resuscitation in 5A group versus saline or sham treatment; also recorded: decreases total peripheral resistance"},
      {"measurement": "cardiac output", "setting": "[5]; of sham group", "result": "about 80%"},
      {"measurement": "stroke volume", "setting": "[5]; of sham group", "result": "about 85%"},
      {"measurement": "mean arterial pressure", "setting": "[5]; of the sham group", "result": "60-70%"},
      {"measurement": "cardiac output versus saline group", "setting": "[5]; rat, in vivo", "result": "significantly elevated; also recorded: restores or significantly improves"},
      {"measurement": "mean arterial pressure versus saline", "setting": "[5]; rat, in vivo", "result": "not significantly different; also recorded: no significant effects"},
      {"measurement": "stroke volume versus saline group", "setting": "[5]; rat, in vivo", "result": "elevated relative to saline group"},
      {"measurement": "systemic hematocrit versus saline treated group", "setting": "[5]; rat, in vivo", "result": "no significant effects"},
      {"measurement": "heart rate", "setting": "[5]; versus other groups", "result": "about the same; also recorded: no significant effects"}
    ]}
  ]
}
